According to patent US20250361273A1, “METHODS AND COMPOSITIONS” (priority 2024, published 2025):
Where a SMILES comes first, the peptide text is derived from it. Bridges are numbered along the chain shown (N, C = ends). [ ]: non-standard residue; d: D form. Trp(6-F) = N[C@@H](Cc1c[nH]c2cc(F)ccc12)C(=O)O; dPhe(4-F) = N[C@H](Cc1ccc(F)cc1)C(=O)O; dAgb = N=C(N)NCC[C@@H](N)C(=O)O; Ac4c(3-oxa) = NC1(C(=O)O)COC1; Pen = CC(C)(S)[C@H](N)C(=O)O

Tests used:
MC1R = MC1R (Homo sapiens, UniProt Q01726); assay: cAMP assay (human receptors), DiscoverX HitHunter, MC1R
MC1R, sequence (Q01726 whole entry): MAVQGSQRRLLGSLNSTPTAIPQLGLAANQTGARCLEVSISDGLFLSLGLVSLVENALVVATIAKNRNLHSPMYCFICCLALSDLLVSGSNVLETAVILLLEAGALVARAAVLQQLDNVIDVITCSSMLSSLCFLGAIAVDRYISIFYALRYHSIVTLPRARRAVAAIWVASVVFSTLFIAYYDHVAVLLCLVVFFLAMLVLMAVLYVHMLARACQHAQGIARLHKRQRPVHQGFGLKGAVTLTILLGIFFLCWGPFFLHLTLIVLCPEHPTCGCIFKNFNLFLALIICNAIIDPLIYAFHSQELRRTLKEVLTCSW
Experimental: The cAMP Assay (Human Receptors)
The in vitro functional activity of peptides was determined via DiscoverX Hit Hunter® cAMP assays, adhering to manufacturer-specified protocols. Assays involved the use of HEK293 cells, each of which were engineered to express MC1R or MC4R receptors.
In accordance with standard procedures, cAMP Hunter cell lines, extracted from freezer stocks, were cultured in 20 μL volumes in white-walled, 384-well microplates. These cells were incubated at 37° C. for an appropriate duration before commencing testing procedures. The identification of cAMP modulation was determined using the DiscoverX HitHunter assay.
For gauging the response from agonists, cells were incubated with a specific peptide, after which the media was aspirated and replaced with a solution of 10 μL of HBSS/10 mM Hepes, known as Assay Buffer. A subsequent dilution of sample stocks yielded a 4× sample in the assay buffer, which was then added to the cells in equal quantities, followed by a 30-minute incubation at 37° C. The ensuing concentration of DMSO, the vehicle, was maintained at 1%. […]
Compound activity was evaluated using a Chemical and Biological Information System software (CBIS) data analysis suite. The results described were calculated on an average of the two points per concentration generated by the assay described above. […]

MC4R vs MC1R = assay: Selectivity calculation MC4R vs MC1R (division of cAMP EC50 values); format: cell-based, human
Experimental: Peptides, including comparator molecules were tested by assays listed below. Selectivity between receptors was assessed in part using cAMP assays, which test the activity of peptides through the Gs pathway.
Selectivity between any two receptors was calculated by a division of the EC50 values between the two receptors, for each individual peptide.

MC4R = target: T1, MC4R (Homo sapiens, UniProt P32245); assay: Bias calculation MC4R B-arrestin v MC4R cAMP; format: cell-based
T1 construct: host or cells: HEK293 (cAMP Hunter and PathHunter MC4R cell lines)
T1 sequence (P32245 whole entry): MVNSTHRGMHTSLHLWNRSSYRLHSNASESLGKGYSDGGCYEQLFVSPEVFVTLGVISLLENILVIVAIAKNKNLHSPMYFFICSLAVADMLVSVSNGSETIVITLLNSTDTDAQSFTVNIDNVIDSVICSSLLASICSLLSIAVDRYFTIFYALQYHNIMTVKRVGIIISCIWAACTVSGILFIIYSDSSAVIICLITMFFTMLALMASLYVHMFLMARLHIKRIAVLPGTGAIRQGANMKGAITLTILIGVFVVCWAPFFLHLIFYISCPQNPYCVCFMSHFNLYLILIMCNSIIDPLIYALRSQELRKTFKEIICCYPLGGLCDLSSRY
Text: When comparing the selectivity of MC4R v MC1R, larger values indicate selectivity towards MC4R. When comparing the bias of MC4R B-arrestin v MC4R cAMP, larger values indicate bias towards B-arrestin.

Row | Compound | EC50 (MC1R) [pM] | Selectivity: MC4R v MC1R (MC4R vs MC1R; Compounds with Gln at X4, larger values indicate selectivity towards MC4R) | Selectivity: MC4R v MC1R (MC4R vs MC1R; Table 6 (A), larger values indicate selectivity towards MC4R) | Selectivity: MC4R v MC1R (MC4R vs MC1R; Table 6 (B), larger values indicate selectivity towards MC4R) | Selectivity: MC4R v MC1R (MC4R vs MC1R; Table 7, Aib(O-cyclic) at X3, larger values indicate selectivity towards MC4R) | Selectivity: MC4R v MC1R (MC4R vs MC1R; Table 14, Aib(O-cyclic) at X3, larger values indicate selectivity towards MC4R) | Selectivity: MC4R v MC1R (MC4R vs MC1R; Table 20, Gln at X4) | Selectivity: MC4R v MC1R (MC4R vs MC1R; calculated from cAMP functional screening, larger values indicate selectivity towards MC4R) | Bias: MC4R B-arrestin v MC4R cAMP (MC4R; Compounds with Gln at X4, larger values indicate bias towards B-arrestin) | Bias: MC4R B-arrestin v MC4R cAMP (MC4R; Table 6 (B), larger values indicate bias towards B-arrestin) | Bias: MC4R B-arrestin v MC4R cAMP (MC4R; Table 7, Aib(O-cyclic) at X3, larger values indicate bias towards B-arrestin) | Bias: MC4R B-arrestin v MC4R cAMP (MC4R; Table 20, Gln at X4)
1 | CCCC[C@H](NC(C)=O)C(=O)N[C@H]1CC(=O)NCCCC[C@@H](C(=O)O)NC(=O)[C@H](Cc2c[nH]c3ccccc23)NC(=O)[C@H](CCCN=C(N)N)NC(=O)[C@@H](Cc2ccccc2)NC(=O)[C@H](Cc2cnc[nH]2)NC1=O [Bremelanotide] | 170 | – | – | – | – | – | – | – | – | – | – | –
2 | CC(=O)N[C@H](CCNC(=N)N)C(=O)N[C@H]1CSSC(C)(C)[C@@H](C(N)=O)NC(=O)[C@H](Cc2c[nH]c3cc(F)ccc23)NC(=O)[C@H](CCCNC(=N)N)NC(=O)[C@@H](Cc2ccc(F)cc2)NC(=O)[C@H](CCC(N)=O)NC(=O)C2(COC2)NC1=O [Molecule 1158, (7R,12R,15S,18S,21R,24S)-7-((R)-2-acetamido-4-guanidinobutanamido)-24-(3-amino-3-oxopropyl)-15-((6-fluoro-1H-indol-3-yl)methyl)-21-(4-fluorobenzyl)-18-(3-guanidinopropyl)-11,11-dimethyl-6,14,17,20,23,26-hexaoxo-2-oxa-9,10-dithia-5,13,16,19,22,25-hexaazaspiro[3.22]hexacosane-12-carboxamide] (Ac-[dAgb]C[Ac4c(3-oxa)]Q[dPhe(4-F)]R[Trp(6-F)][Pen]-NH2; disulfide 2-8) | – | *** (*** denotes MC4R vs MC1R selectivity of about >7.40) | *** (*** denotes MC4R vs MC1R selectivity of about >7.40) | *** (*** denotes MC4R vs MC1R selectivity of about >7.40) | *** (*** denotes MC4R vs MC1R selectivity of about >7.40) | *** (*** denotes MC4R vs MC1R selectivity of about >7.40) | *** (*** denotes MC4R vs MC1R selectivity of about >7.40) | *** (*** denotes MC4R vs MC1R selectivity of about >7.40) | + (+ denotes MC4R B-arrestin v MC4R cAMP bias having a range of >0.00 to ≤2.00) | + (+ denotes MC4R B-arrestin v MC4R cAMP bias having a range of >0.00 to ≤2.00) | + (+ denotes MC4R B-arrestin v MC4R cAMP bias having a range of >0.00 to ≤2.00) | + (+ denotes MC4R B-arrestin v MC4R cAMP bias having a range of >0.00 to ≤2.00)
